Columns and labels:
platelets = assay: Inhibition of platelet aggregation (turbidimetric, washed platelets); format: cell-based; settings: washed rabbit platelets, AA; for inhibitory effect on platelet aggregation induced by different inducers: inducers thrombin, collagen, PAF, read 5 minutes after the inducer
Procedure: In vitro assays can be used to evaluate the efficacy of a fused pyrazolyl compound of this invention in inhibiting platelet aggregation; which is attributable to low intracellular cGMP levels. For example, the compound is incubated in a platelet suspension containing a platelet aggregation factor, and the degree of aggregation is measured turbidimetrically with a dual-channel lumiaggregometer and converted into a percentage value by the method described in Teng et al., Biochem. Biophys Acta. 1987, 924:375-382.
EDTA was added to blood collected from the marginal ear vein of a rabbit to reach a final EDTA concentration of 6 mM. The EDTA-containing blood was then centrifuged at 90×g for 10 minutes at the room temperature. The supernatant, a platelet-rich plasma, was further centrifuged at 500×g for 10 minutes. The platelet pellets thus obtained were washed with a solution containing EDTA (2 mM) and serum albumin (3.5 mg/mL), and then centrifuged again at 500×g for 10 minutes. The pellets were then washed with an EDTA-free Tyrode's solution of the following composition (mM): NaCl (136.8), KCl (2.8), NaHCO3 (11.9), MgCl2 (1.1), NaH2PO4 (0.33), CaCl2 (1.0), and glucose (11.2). After centrifugation under the same conditions, the platelet pellets were suspended in the EDTA-free Tyrode's solution described above. The platelet number was counted by a Coulter Counter (Model ZM) and adjusted to 4.5×10^8 platelets/mL.
A compound to be tested was added to 4 platelet suspensions, which were then incubated at 37° C. for 3 minutes under a stirring condition (900 rpm). One minute after the stirring, four aggregation inducers, i.e., thrombin, collagen, arachidonic acid (AA), and platelet aggregation factor (PAF), were respectively added into the 4 suspensions, causing the platelets to aggregate. Platelet aggregation in each suspension was measured with a dual-channel lumiaggregometer (Model 1020, Payton, Canada) by the turbidimetric method described in Born et al., J. Physiol. 1963, 168:178-195. The percentage values of the platelet aggregation, determined 5 minutes after the addition of each aggregation inducer, were calculated by the method described in Teng et al., Biochem. Biophys Acta. 1987, 924:375-382.

sGC = assay: Activation of sGC (conversion of [α-32P]GTP to cGMP by platelet lysate supernatant); format: biochemical; settings: 100 μM compound; washed rabbit platelet supernatant; 30° C., 10 minutes
Procedure: The efficacy of a compound in activating sGC can be evaluated in vitro by the following assay. Washed platelets are suspended in a buffer and disrupted by sonication. The lysate is then centrifuged to obtain a supernatant which is used as the source of sGC. An aliquot of the supernatant and the compound to be tested are added into a buffer containing GTP, a substrate for sGC. The activity of sGC can be determined by the method described in Gerzer et al., J. Pharmacol. Exp. Ther. 1983, 226:180.
Washed rabbit platelets were prepared by the method described in Teng et al., Thromb. Haemost. 1988, 59:304. They were then suspended in 50 mM pH 7.4 Tris-HCl buffer and subsequently disrupted by sonication. The lysate thus obtained was centrifuged at 39,000×g at 4° C. for 20 minutes, and the supernatant was used as the source of sGC. Two 50 μL aliquots of the supernatant were respectively added to two 150 μL pH 7.4 Tris-HCl (50 mM) buffer solutions, each containing GTP (0.2 mM, containing 1×10^6 cpm [α-^32P]GTP), MgCl2 (5 mM), cGMP (2.5 mM), creatine phosphate (15 mM), and creatine phosphokinase (30 μg). One of the two solutions also contained 100 μM compound 3. After incubation at 30° C. for 10 minutes, conversion of GTP to cGMP by sGC was terminated with HCl (200 μL, 0.5 N). […] Radioactivity ([^32P]cGTP) was measured in a liquid scintillation counter to determine the amount of […].

PDEs = assay: Inhibition of PDE (conversion of [3H]cGMP by platelet lysate supernatant); format: biochemical; settings: 10 μM compound; washed human platelet supernatant; 10 μM cGMP; 37° C., 30 minutes
Procedure: The efficacy of a compound in inhibiting PDEs can be evaluated in vitro by the following assay. Washed platelets are suspended in a Tris-HCl buffer and disrupted by sonication. The lysate is centrifuged to obtain a supernatant which contains PDEs. An aliquot of the supernatant is taken to prepare a PDE-containing solution. The compound to be tested and cGMP (a substrate for PDE) are added to the solution. Ophiophagus hannah snake venom is subsequently added to remove the phosphate in 5′-GMP (converted from cGMP by PDEs) to form uncharged guanosine. An ion-exchange resin is used to remove the remaining cGMP. The cGMP-free solution is then centrifuged, and an aliquot of the supernatant is taken for quantification of the uncharged guanosine in a liquid scintillation counter. Activity of PDEs is evaluated based on the amount of the uncharged guanosine.
Washed human platelets were prepared by the method described in Teng et al., Biochem. Biophys. Acta. 1989, 990:315-320. They were then suspended in 50 mM pH 7.4 Tris-HCl buffer (containing 5 mM MgCl2) and subsequently disrupted by sonication at 4° C. […] Each cGMP-free solution thus obtained was then centrifuged, and an aliquot (0.5 mL) of the supernatant was taken for quantification of uncharged guanosine in a liquid scintillation counter.

SMILES | inhibitory effect on platelet aggregation induced by different inducers (platelets) | relative effectiveness in inhibiting platelet aggregation among compounds 1-4 (platelets; aggregation induced by thrombin, collagen, and PAF) | activation of sGC (sGC) | inhibition of PDEs (PDEs)
COC(=O)c1ccc(-c2nn(Cc3ccccc3)c3cc4c(cc23)OCO4)o1 [Compound 1, 1-benzyl-3-(5′-methoxycarbonyl-2′-furyl)-5,6-methylenedioxoindazole] | showed inhibitory effect on platelet aggregation |  |  | 
O=C(O)c1ccc(-c2nn(Cc3ccccc3)c3cc4c(cc23)OCO4)o1 [Compound 2, 1-benzyl-3-(5′-hydroxycarbonyl-2′-furyl)-5,6-methylenedioxoindazole] | showed inhibitory effect on platelet aggregation |  |  | 
OCc1ccc(-c2nn(Cc3ccccc3)c3cc4c(cc23)OCO4)o1 [Compound 3, 1-benzyl-3-(5′-hydroxymethyl-2′-furyl)-5,6-methylenedioxoindazole] | showed inhibitory effect on platelet aggregation | the most effective | effective activator of sGC | potent inhibitor of PDEs
COCc1ccc(-c2nn(Cc3ccccc3)c3cc4c(cc23)OCO4)o1 [Compound 4, 1-benzyl-3-(5′-methoxymethyl-2′-furyl)-5,6-methylenedioxoindazole] | showed inhibitory effect on platelet aggregation |  |  | 
